According to PMC6366404, “4-(3-Nitrophenyl)thiazol-2-ylhydrazone derivatives as antioxidants and selective hMAO-B inhibitors: synthesis, biological activity and computational analysis” (Journal of Enzyme Inhibition and Medicinal Chemistry, 2019):

Assays:
[1] = target: T1, hMAO-B (Homo sapiens, UniProt P27338); assay: hMAO-B inhibition, IC50 determination (kynuramine fluorescence); assay type: biochemical
T1 sequence (P27338 1-520): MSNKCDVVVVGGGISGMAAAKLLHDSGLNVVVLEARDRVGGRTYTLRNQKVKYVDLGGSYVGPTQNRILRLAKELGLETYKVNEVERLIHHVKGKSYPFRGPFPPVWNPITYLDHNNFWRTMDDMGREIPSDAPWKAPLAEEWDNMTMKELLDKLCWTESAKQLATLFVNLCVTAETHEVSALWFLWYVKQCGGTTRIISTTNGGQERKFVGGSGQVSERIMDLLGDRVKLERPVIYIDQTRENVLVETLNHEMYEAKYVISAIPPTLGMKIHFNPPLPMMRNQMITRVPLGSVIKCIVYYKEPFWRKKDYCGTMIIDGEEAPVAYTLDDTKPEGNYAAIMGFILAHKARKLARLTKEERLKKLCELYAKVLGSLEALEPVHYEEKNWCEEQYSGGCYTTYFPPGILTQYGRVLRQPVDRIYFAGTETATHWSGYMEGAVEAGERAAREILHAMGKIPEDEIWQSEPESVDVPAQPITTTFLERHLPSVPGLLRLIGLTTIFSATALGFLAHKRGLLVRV
Description: The procedure for the measurement of IC50 values for the inhibition of MAO has been reported. The enzyme reactions were prepared to a volume of […] in potassium phosphate buffer at pH 7.4 (100 mM, made isotonic with KCl) and contained kynuramine (50 μM) and the test inhibitors (0.003–100 µM). Stock solutions of the test inhibitors were prepared in DMSO and added to the reactions to yield 4% DMSO. The enzyme reactions were initiated with the addition of recombinant hMAO-A (0.0075 mg protein/mL) or hMAO-B (0.015 mg protein/mL) and incubated for 20 min at 37 °C. At endpoint, the reactions were terminated with 80 µL sodium hydroxide (2N) and the fluorescence of 4-hydroxyquinoline, the oxidation product of kynuramine, was measured (λex = 310; λem = 400 nm)[33]. 4-Hydroxyquinoline was quantified with a calibration curve (0.047–1.56 μM) and the rate of 4-hydroxyquinoline formation was fitted to the one site competition model of the Prism 5 software package (GraphPad). From the resulting sigmoidal plots, the IC50 values were estimated. All enzyme reactions were carried out in triplicate and IC50 values are given as the mean ± standard deviation (SD).

[2] = DPPH radical scavenging activity
[3] = FRAP (ferric reducing antioxidant power) assay
[4] = Phosphomolybdenum assay (PhosphoMo), total antioxidant activity; details: concentration at which absorbance was 0.5

Question: For CC(=NNc1nc(-c2cccc([N+](=O)[O-])c2)cs1)c1cccs1 [Compound 4, 1-(4-(3-Nitrophenyl)thiazol-2-yl)-2-(1-(thiophen-2-yl)ethylidene)hydrazine], which IC50 [1] is on record?
Answer: 0.0018 µM

Question: And the “Selectivity index (SI) for the MAO-B isoform” value ([1]; ratio (IC50 hMAO-A)/(IC50 hMAO-B))?
Answer: 922

Question: And the IC50 [2]?
Answer: 1170 ± 10 µM

Question: What about the EC50 [3] of the same compound?
Answer: 530 ± 20 µM

Question: What about the EC50 [4] of the same compound?
Answer: 1680 ± 90 µM
